These results are taken from patent EP0564466B1, “LHRH-ANTAGONISTS” (ASTA Medica Aktiengesellschaft, priority 1990, dated 1992).

Assay [1] deals with rat ovulation. Kind of assay: Corbin's rat antiovulation method (antiovulatory activity, AOA). It is filed as in vivo, SD rats. Particulars: for % AOA/µg 0.25: 0.25 µg; for % AOA/µg 0.25 / % AOA/µg 0.5 / % AOA/µg 1.0: in saline, given at noon of proestrus, female SD rats; for % AOA/µg 0.5: 0.5 µg; for % AOA/µg 1.0: 1.0 µg. On the procedure:
Corbin's rat antiovulatlon method is used. The healthy, adult, female SD rats (BW 200-250 g) are used in this experiment. All animals are maintained at 22-24 °C and on 14 h/10 h (light/dark) schedule. They are given standard food, and water ad libitum. The rats showing at least two consecutive 4-day estrous cycles in vaginal smear examination can be used in this experiment. […] The rats are sacrificed next day, their oviduct of two sides are examed under a dissecting microscope to determine the ovum number. The rats were divided into several groups according to the dosing, each group consists of about 10 rats, and the control group in which the rats are given equal amount of saline consists of 9-10 rats. The antiovulatory activity (AOA) is shown in the following equation: AOA=(number of unovulated rats)/(Total number of treated rats)X 100 % [formula]

In assay [2] the test system is rat mast cell. Kind of assay: Histamine releasing test (HRT) in vitro. Particulars: in vitro histamine release from rat peritoneal mast cells, 15 min at 37 °C. It is filed as cell-based, SD rats. On the procedure:
The healthy, adult, male SD rats (BW 200-250 g) housing in the above same conditions are used in this experiment. After anesthetized by CO2 the peritoneal cavity is washed with 50 ml of PIPES AC medium containing 20 units of heparin. Following centrifugation at 200xg for 8 min at 4 °C, cells are washed again and finally resuspended to a concentration of 8 to 24x10^5 total leucocyted/ml in PIPAS AC. This suspension contains approximately 5-10 % mast cells. Washed cells are used immediately after collection and are prewarmed for 5 min at 37 °C prior to pipetting 0,3 ml aliquots into polystyrene tubes containing 0,3 ml of diluted peptide. The mixtures are incubated for 15 min at 37 °C and the reaction stopped by centrifugation at 400 xg for 15 min at 4 °C. The supernatans are assayed for histamine content by manual fluorometric assay method after successively extraction with n-butanol and n-heptane. The histamine content can be obtained from the histamine standard curve (see below). The percentage of histamine release can be calculted from the following equation: Histamine release(%)=(E-B)/(C-B)X 100 % [formula] where E is the fluorometric reading of experimental sample, B is the fluorometric reading of samples with cells and buffer only, and C ist the fluorometric reading of "complete" (cells treated with HCIO4).
The standard curve can be obtained by plotting the OD values on a fluorometer at 350 nm/450 nm (activation/fluorescent) against the concentrations of serially diluted solution of accurately weighted histamine hydrochloride. The relative parameter r of the histamine standard curve can be 0.9998, and the lowest detectable concentration of histamine is 0,5 ng/ml.
The ED50 value of peptide can be gotten from the dose response curves obtained by plotting the histamine release versus the peptide concentration on semilogarithmic paper.
All peptide samples should be tested with mast cells from a minimum of 3 different rats.

The subject of assay [3] is rat mast cell. The conditions noted are these: neuropeptide substance P; cited from earlier work.

Non-standard residues stand in square brackets, D forms with d. Residues, ends and D or L forms follow the SMILES beside them. dPhe(4-Cl) = N[C@H](Cc1ccc(Cl)cc1)C(=O)O; d2Nal = N[C@H](Cc1ccc2ccccc2c1)C(=O)O; d3Pal = N[C@H](Cc1cccnc1)C(=O)O

With `CC(=O)N[C@H](Cc1ccc2ccccc2c1)C(=O)N[C@H](Cc1ccc(Cl)cc1)C(=O)N[C@H](Cc1cccnc1)C(=O)N[C@@H](CO)C(=O)N[C@@H](CCCNC(=N)N)C(=O)N[C@H](Cc1cccnc1)C(=O)N[C@@H](CC(C)C)C(=O)N[C@@H](CCCNC(=N)N)C(=O)N1CCC[C@H]1C(=O)N[C@H](C)C(N)=O` [compound 1, [NAc-D2Nal^1, DpClphe^2, D3Pal^3, Ser^4, Arg^5, D3Pal^6, Leu^7, Arg^8, Pro^9, DAla^10]NH2] (Ac-[d2Nal][dPhe(4-Cl)][d3Pal]SR[d3Pal]LRP[dA]-NH2), the AOA in assay [1] (0,5 µg, corn oil) amounted to 100%; in assay [1] (0,12 µg, corn oil), 60%; in assay [1] (0,25 µg, corn oil), 85%. The “% AOA/µg 0.25” value in assay [1] was 50%. Further, the “% AOA/µg 0.5” value in assay [1] was found to be 75%. Further, the “% AOA/µg 1.0” value in assay [1] is 100%. For the same compound, the “ED50 for AOA” value in assay [1] (corn oil) is recorded as ≤ 0,125 µg. Further, the “HRA (µg/ml) ED50 ± SEM” value in assay [2] is 3.5 ± 0.38 µg/mL; in assay [2] (listed as IV), 3,5 µg/ml.

For `CC(=O)N[C@H](Cc1ccc2ccccc2c1)C(=O)N[C@H](Cc1ccc(Cl)cc1)C(=O)N[C@H](Cc1ccccc1)C(=O)N[C@@H](CO)C(=O)N[C@@H](CCCNC(=N)N)C(=O)N[C@H](Cc1cccnc1)C(=O)N[C@@H](CC(C)C)C(=O)N[C@@H](CCCNC(=N)N)C(=O)N1CCC[C@H]1C(=O)N[C@H](C)C(N)=O` [compound 2, [NAc-D2Nal^1, DpClPhe^2, DPhe^3, Ser^4, Arg^5, D3Pal^6, Leu^7, Arg^8, Pro^9, DAla^10]NH2] (Ac-[d2Nal][dPhe(4-Cl)][dF]SR[d3Pal]LRP[dA]-NH2), in assay [1], the “% AOA/µg 0.25” value came to 29%, the “% AOA/µg 0.5” value was determined as 60% and the “% AOA/µg 1.0” value is 100%. The “HRA (µg/ml) ED50 ± SEM” value in assay [2] was 7.4 ± 0.98 µg/mL.

“[Arg^1, Pro^2, Lys^3, Pro^4, Gln^5, Gln^6 Phe^7, Phe^8, Gly^9, Leu^10, Met^11]NH2 [substance P]”: the “ED50 for HRA” value in assay [3] is 5 to 15 µM.

Turning to “[NAc-D2Nal^1, DpClPhe^2, D3Pal^3 Ser4, Tyr5, D3Pal6, Leu7, Arg8, Pro9, DAla10]NH2 [III]”, the AOA in assay [1] (1 µg, corn oil) is 83%; in assay [1] (3 µg, corn oil), 100%. Moreover, the “HRA (µg/ml) ED50 ± SEM” value in assay [2] came out at 9.8 µg/mL.

Turning to “[NAc-D2Nal^1, DpClPhe^2, D3Pal^3, Ser^4, Tyr^5, DArg^6, Leu^7, Arg^8, Pro^9, DAla^10]NH2 [II, reference compound]”, the AOA in assay [1] (0,5 µg, corn oil) is given as 100%; in assay [1] (0,25 µg, corn oil) it was 57%.

For the compound “[NAc-D2Nal^1, DpClPhe^2, DPhe^3, Ser^4, Tyr^5, D3Pal^6, Leu^7, Arg^8, Pro^9, DAla^10]NH2 [V']”, in assay [1], the “% AOA/µg 1.0” value is recorded as 100%. The “HRA (µg/ml) ED50 ± SEM” value in assay [2] is reported as 7,4 µg/ml.

With “[NAc-D2Nal^1, DpClphe^2, D3Pal^3, Ser^4, Mop^5, D3Pal^6, Leu^7, Arg^8, Pro^9, DAla^10]-NH2 [compound 13]”, the “% AOA/µg 0.5” value in assay [1] is 25%. Further, in assay [1], the “% AOA/µg 1.0” value was 100%. Further, the “HRA (µg/ml) ED50 ± SEM” value in assay [2] was 14.7 ± 2.70 µg/mL; in assay [2] (listed as VII) it was 14,7 µg/ml.
